This note sets out measurements from patent US6475801B1, “Anticoagulant and hemanalysis method” (Sysmex Corporation, priority 1998, dated 2002).

In test [1] the test system is platelets. The test can be described thus: Examination on EDTA-dependant pseudothrombocytopenia (platelet counting). Type of test: cell-based, human. The settings on record: FIG. 1. As to the method:
Blood samples to which CTAD of the present invention or EDTA-2K was added were subjected to the platelet counting in order to compare them with regard to the EDTA-dependant Pseudothrombocytopenia.

The test system of test [2] is platelets. Briefly: Examination on cold agglutination (platelet counting after cold storage). Format: cell-based, human. The procedure: Blood samples to which CTAD of the present invention or EDTA-2K was added were subjected to the platelet counting in order to compare them with regard to cold agglutination (the pseudothrombocytopenia in cold storage). […]
Test [3] deals with platelets. The test can be described thus: Change with time in the mean platelet volume (MPV). Format: cell-based, human. The note with it: FIG. 2. The procedure: Blood samples to which CTAD of the present invention or EDTA-2K was added were compared with regard to change with time in the size of platelets.
Test [4] relates to blood coagulation. Briefly: Blood coagulation tests (CA-1000), Example 1 A. The note with it: mean of four normal samples. The arrangement: species or system human. The source says: Blood was collected into test tubes containing the anticoagulant (CTAD) prepared as above and subjected to blood cell count tests (leukocyte count (WBC), ratios of leukocytic components (neutrophil ratio (NEUT%), lymphocyte ratio (LYMPH%), monocyte ratio (MONO%), eosinophil ratio (EOSI%) and basophil ratio (BASO%)), erythrocyte count (RBC), hemoglobin concentration (Hgb), hematocrit (Hct), MCV, MCH, MCHC and platelet count (PLT))(used counter: SE-9000™ produced by Sysmex Corporation, Japan) and coagulation tests (prothrombin time (PT), activated partial thromboplastin time (APTT), fibrinogen determination (Fbg))(used tester:CA-1000 produced by Sysmex Corporation, Japan).
EDTA-2K (Venoject II™ or 5 ml produced by Terumo), 5 mg, was used as a control for the blood cell count tests and a 3.8% solution of sodium citrate (3.8% solution of sodium citrate for 5 ml produced by Terumo, Japan), 0.5 ml, was used as a control for the blood coagulation tests, respectively, in place of the above anticoagulant.
The tests were conducted with four normal samples, and mean values are calculated.

`O=C([O-])CN(CCN(CC(=O)O)CC(=O)O)CC(=O)[O-].[K+].[K+]` [EDTA-2K]: the “change with time in the number of platelets” value in test [1] was “decreased with time”. Also, in test [2] (4° C., eight hours after collected), the “decrease of platelets in cold storage” value is on record as “Platelets decreased”. Further, the “PLT (platelet count)” value in test [2] (37° C. (control)) is given as 17.6 ×10^4; in test [2] (preserved at 4° C., examined eight hours after collected), 9.0 ×10^4. The “change with time in the size of platelets (mean platelet volume)” value in test [3] was “grew in size with time”.
Regarding `O=C([O-])CC(O)(CC(=O)[O-])C(=O)[O-].[Na+].[Na+].[Na+]` [sodium citrate], in test [4], the “APTT (activated partial thromboplastin time)” value came to 28.6 s, the “Fbg (fibrinogen determination)” value is 9.8 s and the “PT (prothrombin time)” value was found to be 9.5 s.
